What was measured:
Assay type in all cases: in vivo
[1] = test system: Bemisia tabaci (Cotton White Fly); experiment: Activity against Bemisia tabaci (cotton white fly), sprayed cotton leaf discs; details: foliar, 144 h, application rate of 200 ppm, adult white flies, 6 days after incubation
Procedure: Example B1: Activity Against Bemisia tabaci (Cotton White Fly)
Cotton leaf discs were placed on agar in 24-well microtiter plates and sprayed with aqueous test solutions prepared from 10′000 ppm DMSO stock solutions. After drying the leaf discs were infested with adult white flies. The samples were checked for mortality 6 days after incubation.

[2] = test system: Plutella xylostella (Diamond Back Moth); experiment: Activity against Plutella xylostella (diamond back moth), treated artificial diet; details: 192 h, application rate of 200 ppm, Plutella eggs, 8 days after infestation, read-out: effect in at least one of the two categories (mortality or growth inhibition)
Procedure: Example B4: Activity Against Plutella xylostella (Diamond Back Moth)
24-well microtiter plates with artificial diet were treated with aqueous test solutions prepared from 10′000 ppm DMSO stock solutions by pipetting. After drying, Plutella eggs were pipetted through a plastic stencil onto a gel blotting paper and the plate was closed with it. The samples were assessed for mortality and growth inhibition in comparison to untreated samples 8 days after infestation.
(§1) The following compounds gave an effect of at least 80% in at least one of the two categories (mortality or growth inhibition) at an application rate of 200 ppm: […]

[3] = test system: Euschistus heros (Neotropical Brown Stink Bug); experiment: Activity against Euschistus heros (neotropical brown stink bug), sprayed soybean leaves; details: 120 h, application rate of 200 ppm, N2 nymphs, 5 days after infestation, read-out: effect in at least one of the two categories (mortality or growth inhibition)
Procedure: Example B3: Activity Against Euschistus heros (Neotropical Brown Stink Bug)
Soybean leaves on agar in 24-well microtiter plates were sprayed with aqueous test solutions prepared from 10′000 ppm DMSO stock solutions. After drying the leaves were infested with N2 nymphs. The samples were assessed for mortality and growth inhibition in comparison to untreated samples 5 days after infestation.
as §1

[4] = test system: Myzus persicae (Green Peach Aphid); experiment: Activity against Myzus persicae (green peach aphid), systemic activity, pea seedling roots in test solution; details: 144 h, test rate of 24 ppm, aphid population of mixed ages, 6 days after placing seedlings into test solutions
Procedure: Example B6: Activity Against Myzus persicae (Green Peach Aphid) Systemic Activity
Roots of pea seedlings infested with an aphid population of mixed ages were placed directly into aqueous test solutions prepared from 10′000 DMSO stock solutions. The samples were assessed for mortality 6 days after placing seedlings into test solutions.

[5] = test system: Diabrotica Balteata (Corn Root Worm); experiment: Activity against Diabrotica balteata (corn root worm), sprayed maize sprouts; details: 96 h, application rate of 200 ppm, L2 larvae, 4 days after infestation, read-out: effect in at least one of the two categories (mortality or growth inhibition)
Procedure: Example B2: Activity Against Diabrotica Balteata (Corn Root Worm)
Maize sprouts placed onto an agar layer in 24-well microtiter plates were treated with aqueous test solutions prepared from 10′000 ppm DMSO stock solutions by spraying. After drying, the plates were infested with L2 larvae (6 to 10 per well). The samples were assessed for mortality and growth inhibition in comparison to untreated samples 4 days after infestation.
as §1

[6] = test system: Myzus persicae (Green Peach Aphid); experiment: Activity against Myzus persicae (green peach aphid), feeding/contact activity, sunflower leaf discs; details: foliar, 144 h, application rate of 200 ppm, aphid population of mixed ages, 6 days after infestation
Procedure: Example B5: Activity Against Myzus persicae (Green Peach Aphid) Feeding/Contact Activity
Sunflower leaf discs were placed onto agar in a 24-well microtiter plate and sprayed with aqueous test solutions prepared from 10′000 ppm DMSO stock solutions. After drying, the leaf discs were infested with an aphid population of mixed ages. The samples were assessed for mortality 6 days after infestation.

[7] = test system: Spodoptera littoralis (Egyptian Cotton Leaf Worm); experiment: Activity against Spodoptera littoralis (Egyptian cotton leaf worm), sprayed cotton leaf discs; details: foliar, 72 h, application rate of 200 ppm, L1 larvae, 3 days after infestation
Procedure: Example B7: Activity Against Spodoptera littoralis (Egyptian Cotton Leaf Worm)
Cotton leaf discs were placed onto agar in 24-well microtiter plates and sprayed with aqueous test solutions prepared from 10′000 ppm DMSO stock solutions. After drying the leaf discs were infested with five L1 larvae. The samples were assessed for mortality, anti-feeding effect, and growth inhibition in comparison to untreated samples 3 days after infestation. Control of Spodoptera littoralis by a test sample is given when at least one of the categories mortality, anti-feedant effect, and growth inhibition is higher than the untreated sample.

CCSc1cccnc1-c1ncc(OCC(F)(F)C(F)(F)F)c(=O)n1C [Compound P1, 2-(3-ethylsulfanyl-2-pyridyl)-3-methyl-5-(2,2,3,3,3-pentafluoro-propoxy)pyrimidin-4-one]
≥ 80%: mortality at 200 ppm [1] | percent effect (mortality or growth inhibition) at 200 ppm [2] | percent effect (mortality or growth inhibition) at 200 ppm [3] | mortality at 24 ppm [4] | percent effect (mortality or growth inhibition) at 200 ppm [5] | mortality at 200 ppm [6]

CCS(=O)(=O)c1cccnc1-c1ncc(OCC(F)(F)C(F)(F)F)c(=O)n1C [Compound P2, 2-(3-ethylsulfonyl-2-pyridyl)-3-methyl-5-(2,2,3,3,3-pentafluoro-propoxy)pyrimidin-4-one]
≥ 80%: mortality at 200 ppm [1] | percent control (mortality, anti-feedant effect or growth inhibition) at 200 ppm [7] | percent effect (mortality or growth inhibition) at 200 ppm [2] | percent effect (mortality or growth inhibition) at 200 ppm [3] | mortality at 24 ppm [4] | percent effect (mortality or growth inhibition) at 200 ppm [5] | mortality at 200 ppm [6]

CCS(=O)(=O)c1cc(N(C)C(C)=O)cnc1-c1ncc(OCC(F)(F)C(F)(F)F)c(=O)n1C [Compound P5, N-[5-ethylsulfonyl-6-[1-methyl-6-oxo-5-(2,2,3,3,3-pentafluoropropoxy)-pyrimidin-2-yl]-3-pyridyl]-N-methyl-acetamide]
≥ 80%: percent effect (mortality or growth inhibition) at 200 ppm [2] | percent effect (mortality or growth inhibition) at 200 ppm [3] | mortality at 24 ppm [4] | percent effect (mortality or growth inhibition) at 200 ppm [5] | mortality at 200 ppm [6]

CCS(=O)(=O)c1ccc(N(C)C(C)=O)nc1-c1ncc(OCC(F)(F)C(F)(F)F)c(=O)n1C [Compound P9, N-[5-ethylsulfonyl-6-[1-methyl-6-oxo-5-(2,2,3,3,3-pentafluoropropoxy)-pyrimidin-2-yl]-2-pyridyl]-N-methyl-acetamide]
≥ 80%: mortality at 200 ppm [1] | percent effect (mortality or growth inhibition) at 200 ppm [2] | mortality at 24 ppm [4] | percent effect (mortality or growth inhibition) at 200 ppm [5] | mortality at 200 ppm [6]

CCS(=O)(=O)c1cc(C2(C#N)CC2)cnc1-c1ncc(OCC(F)(F)C(F)(F)F)c(=O)n1C [Compound P11, 1-[5-ethylsulfonyl-6-[1-methyl-6-oxo-5-(2,2,3,3,3-pentafluoropropoxy)-pyrimidin-2-yl]-3-pyridyl]cyclopropanecarbonitrile]
≥ 80%: mortality at 200 ppm [1] | percent control (mortality, anti-feedant effect or growth inhibition) at 200 ppm [7] | percent effect (mortality or growth inhibition) at 200 ppm [2] | percent effect (mortality or growth inhibition) at 200 ppm [3] | mortality at 24 ppm [4] | percent effect (mortality or growth inhibition) at 200 ppm [5] | mortality at 200 ppm [6]

CCS(=O)(=O)c1cc(C(C)(C)C#N)cnc1-c1ncc(OCC(F)(F)C(F)(F)F)c(=O)n1C [Compound P13, 2-[5-ethylsulfonyl-6-[1-methyl-6-oxo-5-(2,2,3,3,3-pentafluoropropoxy)pyrimidin-2-yl]-3-pyridyl]-2-methyl-propanenitrile]
≥ 80%: mortality at 200 ppm [1] | percent control (mortality, anti-feedant effect or growth inhibition) at 200 ppm [7] | percent effect (mortality or growth inhibition) at 200 ppm [2] | percent effect (mortality or growth inhibition) at 200 ppm [3] | mortality at 24 ppm [4] | percent effect (mortality or growth inhibition) at 200 ppm [5]

CCS(=O)(=O)c1ccc(-n2cncn2)nc1-c1ncc(OCC(F)(F)C(F)(F)F)c(=O)n1C [Compound P14, 2-[3-ethylsulfonyl-6-(1,2,4-triazol-1-yl)-2-pyridyl]-3-methyl-5-(2,2,3,3,3-pentafluoropropoxy) pyrimidin-4-one]
≥ 80%: mortality at 200 ppm [1] | percent control (mortality, anti-feedant effect or growth inhibition) at 200 ppm [7] | percent effect (mortality or growth inhibition) at 200 ppm [2] | percent effect (mortality or growth inhibition) at 200 ppm [3] | mortality at 24 ppm [4] | percent effect (mortality or growth inhibition) at 200 ppm [5] | mortality at 200 ppm [6]

CCS(=O)(=O)c1ccc(N(C)C(=O)NC)nc1-c1ncc(OCC(F)(F)C(F)(F)F)c(=O)n1C [Compound P15, 1-[5-ethylsulfonyl-6-[1-methyl-6-oxo-5-(2,2,3,3,3-pentafluoropropoxy)pyrimidin-2-yl]-2-pyridyl]-1,3-dimethyl-urea]
≥ 80%: percent effect (mortality or growth inhibition) at 200 ppm [3] | mortality at 24 ppm [4] | mortality at 200 ppm [6]

CCS(=O)(=O)c1ccc(N(C)C(=O)C2CC2)nc1-c1ncc(OCC(F)(F)C(F)(F)F)c(=O)n1C [Compound P16, N-[5-ethylsulfonyl-6-[1-methyl-6-oxo-5-(2,2,3,3,3-pentafluoropropoxy)pyrimidin-2-yl]-2-pyridyl]-N-methyl-cyclo-propanecarboxamide]
≥ 80%: mortality at 200 ppm [1] | percent control (mortality, anti-feedant effect or growth inhibition) at 200 ppm [7] | percent effect (mortality or growth inhibition) at 200 ppm [2] | percent effect (mortality or growth inhibition) at 200 ppm [3] | mortality at 24 ppm [4] | percent effect (mortality or growth inhibition) at 200 ppm [5] | mortality at 200 ppm [6]

CCS(=O)(=O)c1cc(C2CC2)cnc1-c1ncc(OCC(F)(F)C(F)(F)F)c(=O)n1C [Compound P18, 2-(5-cyclopropyl-3-ethylsulfonyl-2-pyridyl)-3-methyl-5-(2,2,3,3,3-pentafluoropropoxy) pyrimidin-4-one]
≥ 80%: percent control (mortality, anti-feedant effect or growth inhibition) at 200 ppm [7] | percent effect (mortality or growth inhibition) at 200 ppm [2] | percent effect (mortality or growth inhibition) at 200 ppm [3] | mortality at 24 ppm [4] | percent effect (mortality or growth inhibition) at 200 ppm [5] | mortality at 200 ppm [6]

CCS(=O)(=O)c1cc(Oc2ccccn2)cnc1-c1ncc(OCC(F)(F)C(F)(F)F)c(=O)n1C [Compound P20, 2-[3-ethylsulfonyl-5-(2-pyridyloxy)-2-pyridyl]-3-methyl-5-(2,2,3,3,3-pentafluoropropoxy) pyrimidin-4-one]
≥ 80%: percent control (mortality, anti-feedant effect or growth inhibition) at 200 ppm [7] | percent effect (mortality or growth inhibition) at 200 ppm [2] | percent effect (mortality or growth inhibition) at 200 ppm [3] | mortality at 24 ppm [4] | percent effect (mortality or growth inhibition) at 200 ppm [5] | mortality at 200 ppm [6]

Reference: patent publication US20220144799A1, “PESTICIDALLY ACTIVE HETEROCYCLIC DERIVATIVES WITH SULFUR CONTAINING SUBSTITUENTS” (SYNGENTA CROP PROTECTION AG, priority 2019, published 2022)
